Measurements reported in patent US20160038526A1, “TREATMENT OF PROSTATE CANCER” (THOMAS JEFFERSON UNIVERSITY, priority 2012, published 2016).

Assays:
CWR22Rv1 xenograft tumor = assay: CWR22Rv1 human prostate tumor xenograft in nude mice: tumor growth, viable cells, TUNEL; assay type: in vivo; conditions: nude mice, 25, 50 or 100 mg/kg intraperitoneal daily for 10 days
Experimental: 1.5×10^7 CWR22Rv1 cells in 0.1 ml RPMI 1640 medium were mixed with 0.1 ml of Matrigel (BD Bioscience, Palo Alto, Calif.), and were inoculated subcutaneously (s.c.) into one flank per mouse. Established tumors were randomly distributed into five groups (ten mice for each group) with similar average size. N6BAP was dissolved in 0.3% hydroxycellulose (HPC). Mice were treated daily for 10 days by intraperitoneal injection with 0.2 ml of N6BAP at 25 mg/kg, 50 mg/kg or 100 mg/kg body weight, or with 0.2 ml 0.3% HPC solution, or no treatment for control. Tumor sizes were measured three times per week. Tumor volumes were calculated using the following formula: 3.14×length×width×depth/6. Tumor growth rates were calculated, and percent changes in tumor volume of each group were presented. […] Individual tumors are represented as columns.
Tumor sections were hematoxylin-eosin stained to assess the loss of viable tumor cells. The results are shown in FIG. 12A, showing the loss of live epithelial cells with the […] N6BAP-treated CWR22Rv1 xenograft tumors vs. controls.
In situ end labeling of fragmented DNA was carried out according to the terminal deoxyribonucleotidyl transferse (TdT)-mediated biotin-16-dUTP nick-end labeling (TUNEL) assay to determine that cells within the CWR22Rv1 tumors were undergoing apoptosis. The assay was performed according to the In situ Cell Death Detection Kit from Roche Applied Science. Briefly, rehydrated deparaffinated tissue sections from the xenograft tumors were treated by Proteinase K followed by 3% H2O2 at room temperature. […] Nucleotides incorporated into fragmented DNA were detected after incubation with anti-fluorescein antibody conjugated with peroxidase followed by visualization with 3,3-diaminobenzidine as a chromogen and methyl green as a counterstain. […] Cell viability indexes were determined by counting alive cells per total number of cells per view established in the no treatment group. TUNEL indexes were determined by counting epithelial cells with TUNEL-positive cells per total number of epithelial cells per view. […]

A2058 human melanoma = assay: Cell viability assay, A2058; assay type: cell-based
Experimental: (§1) CWR22Rv1 prostate cancer cells were treated with N6BAP or the control compound C5 (Ctrl) at 25 μM concentration or vehicle for 24 h. Following trypan blue exclusion, the attached viable vs. de-attached dead cells were counted. […] The bars indicate mean±SD of triplicate wells. In another assay, CWR22Rv1, LNCaP and DU145 cells were treated with N6BAP, the control compound C5 (Ctrl) or vehicle at indicated concentrations. The fraction of alive cells was determined by MTS ([…]) metabolic activity assay (CellTiter 96® AQueous Assay kit). The results are shown in FIGS. 9C, 9D and 9E, respectively.
(§2) The procedure of Example 9 was followed, substituting cells of the following solid tumor cell lines for the cells treated in Example 9: A549 human lung cancer cells, CAPAN human pancreatic cancer cells, T47D human breast cancer cells, […], A2058 human melanoma and COS-7 monkey fibroblast cell lines.

Stat5 = target: T1, Stat5 (Homo sapiens, UniProt P42229); assay: Prolactin-induced Stat5 phosphorylation in CWR22Rv1 cells (immunoprecipitation/Western blot); assay type: cell-based; conditions: CWR22Rv1 cells, 25, 50 and 100 μM for 2 h, 10 nM Prl 30 minutes
T1 construct: endogenous in cells; host or cells: CWR22Rv1
T1 sequence (P42229 whole entry): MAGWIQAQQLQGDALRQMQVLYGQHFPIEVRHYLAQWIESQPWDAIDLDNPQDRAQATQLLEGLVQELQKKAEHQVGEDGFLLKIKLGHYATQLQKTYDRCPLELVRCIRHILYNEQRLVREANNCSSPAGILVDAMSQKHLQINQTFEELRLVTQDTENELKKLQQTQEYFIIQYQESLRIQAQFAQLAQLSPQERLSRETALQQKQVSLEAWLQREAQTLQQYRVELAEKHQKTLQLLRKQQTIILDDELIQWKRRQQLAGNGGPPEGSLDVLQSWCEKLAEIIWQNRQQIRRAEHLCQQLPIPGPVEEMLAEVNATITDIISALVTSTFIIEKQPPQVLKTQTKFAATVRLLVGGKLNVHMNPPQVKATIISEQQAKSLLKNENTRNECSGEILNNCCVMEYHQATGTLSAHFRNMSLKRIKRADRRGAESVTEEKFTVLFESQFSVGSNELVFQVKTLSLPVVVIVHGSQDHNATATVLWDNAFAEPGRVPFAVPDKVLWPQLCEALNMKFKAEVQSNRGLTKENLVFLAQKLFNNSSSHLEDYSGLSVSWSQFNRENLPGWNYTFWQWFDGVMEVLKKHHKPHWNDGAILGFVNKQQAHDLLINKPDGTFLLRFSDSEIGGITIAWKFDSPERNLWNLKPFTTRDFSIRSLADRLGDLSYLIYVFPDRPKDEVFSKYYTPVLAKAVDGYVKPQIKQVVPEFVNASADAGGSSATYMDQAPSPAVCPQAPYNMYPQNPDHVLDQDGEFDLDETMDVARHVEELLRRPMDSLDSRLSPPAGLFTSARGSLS
Experimental: CWR22Rv1 cells were starved for 24 h in serum-free medium, treated N6BAP at 25, 50 and 100 μM concentrations for 2 h, followed by stimulation with 10 nM Prl for 30 minutes. Stat5a and Jak2 were immunoprecipitated with anti-Stat5a or anti-Jak2 pAbs. Immunoprecipitates of CWR22Rv1 cells were blotted with anti-PYStat5, anti-Stat5a/b mAb or anti-PY mAb (for Jak2). Whole cell lysates were immunoblotted with anti-actin pAb for loading control. Because SH2-domain of Stat5 mediates the recruitment of Stat5 to the Prl-receptor-Jak2-complex and Stat5 phosphorylation, N6BAP inhibits Prl-induced phosphorylation of Stat5.
The protocol in more detail comprised the following. Cell pellets were solubilized in lysis buffer [10 mM Tris-HCl (pH 7.6), 5 mM EDTA, 50 mM sodium chloride, 30 mM sodium pyrophosphate, 50 mM sodium fluoride, 1 mM sodium orthovanadate, 1% Triton X-100, 1 mM phenylmethylsulfonyl fluoride, 5 μg/mlaprotinin, 1 μg/ml pepstatin A, and 2 μg/ml leupeptin], rotated end-over-end at 4° C. for 60 min, and insoluble material was pelleted at 12,000×g for 30 min at 4° C. The protein concentrations of clarified cell lysates were determined by simplified Bradford method (Bio-Rad Laboratories, Hercules, Calif.). Stat5a, Stat5b and Jak2 were immunoprecipitated from whole cell lysates with anti-Stat5a, anti-Stat5b (4 μl/ml; Millipore, Billerica, Mass.) or anti-Jak2 (Millipore) pAbs. […]

COS-7 (monkey kidney) = assay: Cell viability assay, COS-7; assay type: cell-based
Experimental: as §1, §2

Prl-induced phosphorylation of Stat5 (Stat5): inhibits Stat5 phosphorylation
SMILES: O=P(O)(O)OC[C@H]1O[C@@H](n2cnc3c(NCc4ccccc4)ncnc32)[C@H](O)[C@@H]1O [N6BAP, N^6-benzyladenosine-5′-monophosphate]
apoptotic epithelial cells in tumor xenografts (TUNEL) (CWR22Rv1 xenograft tumor): increased apoptotic epithelial cells
live epithelial cells in tumor xenografts (hematoxylin-eosin staining) (CWR22Rv1 xenograft tumor): decreased the number of live epithelial cells
xenograft tumor growth (tumor volume) (CWR22Rv1 xenograft tumor): inhibited the growth of the xenograft tumor in a dose-dependent manner
cell viability (A2058 human melanoma): did not affect the viability
cell viability (COS-7 (monkey kidney)): did not affect the viability
